Data set [1] concerns PEX405 cells. Format: cell-based. The following applies: 3 days, PI positive cells (dead cells).
Procedure: (§1) Images were acquired using the EnSight multimode plate reader (PerkinElmer) and analysis was done using Columbus analysis software (PerkinElmer). […] Then the total number of cells and the % of dead cells was calculated.
(§2) All HDAC inhibitors were tested at 1.3 and 10 µM for 3 days on GM16513 and PEX405 cells.
The test system of data set [2] is GM16513 cells. Format: cell-based. The settings on record: 3 days, PI positive cells (dead cells).
Procedure: as §1, §2
Data set [3] concerns PEX405 cells. Description: Catalase import immunofluorescence, high-content screening (% importing cells). Format: cell-based, human. The following applies: PEX405 cells, 3 days.
Procedure: (§3) Primary fibroblasts were seeded at 500-700 cells per well in 384-well plates and grown at 37°C overnight. Cells were treated with test compounds or 0.1% DMSO for 3 days. After 3 days and a wash with PBS, cells were fixed with 4% paraformaldehyde (Electron Microscopy Sciences) in PBS for 20 minutes. After 3 washes with PBS, the cells were permeabilized and blocked with 0.3% Triton X-100, 1% BSA in PBS for 30 minutes at room temperature followed by 3 washes with 1% BSA in PBS. The cells were incubated with a rabbit Catalase polyclonal antibody (#12980 Cell signaling) overnight at 4°C. Following 3 washes with PBS containing 0.1% Tween-20, the cells were incubated for 1 h at room temperature with a conjugated goat anti-rabbit secondary antibody Alexa Fluor 647 (Ab150083-Abcam). The cells were then washed 3 times with PBS and Hoechst 33342 (H3570-ThermoFisher Scientific) + HCS Cellmask Blue (H32720 - ThermoFisher Scientific) staining was performed at 0.1 µg/ml and 0.4 µg/mL respectively for 30 minutes at room temperature. The cells were finally washed 3 times with PBS and fluorescent images were acquired using the INCell Analyzer 6000 imaging platform (GE Healthcare Life Sciences).
Images analysis was done using Columbus analysis software (PerkinElmer). DAPI channel was used to find nuclei (Hoechst 33342) and cytoplasm (HCS CellMask Blue) and border objects were removed. Cy5 channel (AlexaFluor 647) was used to find spots corresponding to peroxisomes which correctly import catalase. Cells were classified as importing or non-importing cells using a linear classifier method after training with images of wells containing Healthy cells and PEX1 deficient cells. The number of importing or non-importing cells was calculated. Finally, results were expressed as % of importing cells.
(§4) The cytotoxicity was assessed in parallel using a double nucleus staining with Hoechst 33342 and Propidium Iodide (PI).
The subject of data set [4] is GM16513 cells. The description is as above. Format: cell-based, human. The settings on record: GM16513 cells, 3 days; for EC50 / Emax: Homo sapiens, 72 h, dose response with 6 concentrations; for EC50: read-out: EC50; for Emax: read-out: Max Efficacy (% Importing cells).
Procedure: as §3
Images analysis was done using Columbus analysis software (PerkinElmer). DAPI channel was used to find nuclei (Hoechst 33342) and cytoplasm (HCS CellMask Blue) and border objects were removed. Cy5 channel (AlexaFluor 647) was used to find spots corresponding to peroxisomes which correctly import catalase. […] The number of importing or non-importing cells was calculated. Finally, results were expressed as % of importing cells.
as §4
The EC50 and maximum efficacy of these inhibitors were determined.

The text below walks through data of patent EP4410284A1, “COMPOUND AND METHOD FOR THE TREATMENT OF ZELLWEGER SPECTRUM DISORDER” (Apteeus, priority 2023, dated 2024).

Molecules are shown by their SMILES. Where two headings read alike, the source gives them in different places.

Regarding `Nc1ccccc1NC(=O)c1ccc(CNc2nccc(-c3cccnc3)n2)cc1` [Mocetinostat], the “% PI+ cells” value in data set [1] (1.3 µM) was found to be 3%; in data set [1] (10 µM), 29%; in data set [2] (1.3 µM), 4%; in data set [2] (10 µM), 9%. Further, the “% Importing cells” value in data set [3] (1.3 µM) came out at 15%; in data set [3] (10 µM), 9%; in data set [4] (1.3 µM), 60%; in data set [4] (10 µM), 39%. Also, the EC50 in data set [4] is 250 nM. The Emax in data set [4] turned out to be 50%.

With `Nc1ccccc1NC(=O)CCCCCC(=O)Nc1ccccc1` [NKL 22], the “% PI+ cells” value in data set [1] (1.3 µM) stood at 0%; in data set [1] (10 µM), 1%; in data set [2] (1.3 µM) it was 1%; in data set [2] (10 µM), 4%. The “% Importing cells” value in data set [3] (1.3 µM) is 7%; in data set [3] (10 µM), 13%; in data set [4] (1.3 µM), 28%; in data set [4] (10 µM), 55%.

For `Nc1ccccc1NC(=O)c1ccc(Cn2cc(-c3ccc(C(=O)NCc4cccnc4)cc3)nn2)cc1` [Nampt-IN-3], the “% PI+ cells” value was 1% in data set [1] (1.3 µM), 4% in data set [1] (10 µM), 3% in data set [2] (1.3 µM) and 3% in data set [2] (10 µM). Further, the “% Importing cells” value was determined as 33% in data set [3] (1.3 µM), 31% in data set [3] (10 µM), 80% in data set [4] (1.3 µM) and 74% in data set [4] (10 µM).

Take `O=C(NO)c1cnc(N2C[C@@H]3[C@H](C2)[C@H]3NCc2ccc3cc(F)ccc3n2)nc1` [Nanatinostat]: the “% PI+ cells” value in data set [1] (1.3 µM) was found to be 15%; in data set [1] (10 µM), 54%; in data set [2] (1.3 µM), 12%; in data set [2] (10 µM), 37%. Besides, the “% Importing cells” value worked out at 14% in data set [3] (1.3 µM), 0% in data set [3] (10 µM), 88% in data set [4] (1.3 µM) and 78% in data set [4] (10 µM). Also, the EC50 in data set [4] came to 50 nM. Further, the Emax in data set [4] came to 93%.

Consider `CCCCN(Cc1ccc(C(=O)NO)cc1)C(=O)Nc1ccccc1` [Nexturastat A], for which the “% PI+ cells” value in data set [1] (1.3 µM) is 1%; in data set [1] (10 µM), 3%; in data set [2] (1.3 µM) it was 2%; in data set [2] (10 µM), 4%. For the same molecule, the “% Importing cells” value in data set [3] (1.3 µM) amounted to 8%; in data set [3] (10 µM), 27%; in data set [4] (1.3 µM), 35%; in data set [4] (10 µM), 83%.

For the molecule `COc1ccc(Cn2ccc3ccc(C(=O)NO)cc32)cc1` [PCI-34051], the “% PI+ cells” value turned out to be 1% in data set [1] (1.3 µM), 1% in data set [1] (10 µM), 1% in data set [2] (1.3 µM) and 2% in data set [2] (10 µM). In addition, the “% Importing cells” value in data set [3] (1.3 µM) is 2%; in data set [3] (10 µM), 1%; in data set [4] (1.3 µM) it was 16%; in data set [4] (10 µM), 7%.

As to `Cc1[nH]c2ccccc2c1CCNCc1ccc(/C=C/C(=O)NO)cc1` [Panobinostat], the “% PI+ cells” value turned out to be 48% in data set [1] (1.3 µM), 49% in data set [1] (10 µM), 30% in data set [2] (1.3 µM) and 32% in data set [2] (10 µM). Also, the “% Importing cells” value worked out at 6% in data set [3] (1.3 µM), 18% in data set [3] (10 µM), 86% in data set [4] (1.3 µM) and 44% in data set [4] (10 µM). The EC50 in data set [4] stood at 3.14 nM. Further, the Emax in data set [4] stood at 93%.

For the molecule `Cc1ccc(NC(=O)CCCCCC(=O)Nc2ccccc2N)cc1` [Pimelic Diphenylamide 106], the “% PI+ cells” value in data set [1] (1.3 µM) worked out at 1%; in data set [1] (10 µM), 2%; in data set [2] (1.3 µM), 1%; in data set [2] (10 µM), 3%. The “% Importing cells” value in data set [3] (1.3 µM) came out at 4%; in data set [3] (10 µM) it was 17%; in data set [4] (1.3 µM), 22%; in data set [4] (10 µM), 52%.

As for `CCCCc1nc2cc(/C=C/C(=O)NO)ccc2n1CCN(CC)CC` [Pracinostat], the “% PI+ cells” value in data set [1] (1.3 µM) turned out to be 2%; in data set [1] (10 µM), 41%; in data set [2] (1.3 µM), 4%; in data set [2] (10 µM), 31%. For the same molecule, the “% Importing cells” value in data set [3] (1.3 µM) amounted to 52%; in data set [3] (10 µM) it was 25%; in data set [4] (1.3 µM), 92%; in data set [4] (10 µM), 86%. The EC50 in data set [4] was found to be 170 nM. The Emax in data set [4] was determined as 93%.

Consider `O=C(CCCCCCC(=O)Nc1cccnc1)NO` [Pyroxamide], for which the “% PI+ cells” value is 1% in data set [1] (1.3 µM), 1% in data set [1] (10 µM), 1% in data set [2] (1.3 µM) and 4% in data set [2] (10 µM). For the same molecule, the “% Importing cells” value in data set [3] (1.3 µM) is recorded as 5%; in data set [3] (10 µM), 3%; in data set [4] (1.3 µM) it was 25%; in data set [4] (10 µM), 11%.

Broadly, the EC50 is the concentration giving half of the maximal effect.
